Columns and labels:
[1] = Effective concentration required for induction of glutamine synthetase in human skeletal muscle cells using 0% radiolabeled Dexamethasone; type: functional
[2] = molecular target: T1, Glucocorticoid receptor (Homo sapiens, UniProt P04150); assay: Inhibition of human glucocorticoid receptor alpha isoform
T1 sequence (P04150 whole entry): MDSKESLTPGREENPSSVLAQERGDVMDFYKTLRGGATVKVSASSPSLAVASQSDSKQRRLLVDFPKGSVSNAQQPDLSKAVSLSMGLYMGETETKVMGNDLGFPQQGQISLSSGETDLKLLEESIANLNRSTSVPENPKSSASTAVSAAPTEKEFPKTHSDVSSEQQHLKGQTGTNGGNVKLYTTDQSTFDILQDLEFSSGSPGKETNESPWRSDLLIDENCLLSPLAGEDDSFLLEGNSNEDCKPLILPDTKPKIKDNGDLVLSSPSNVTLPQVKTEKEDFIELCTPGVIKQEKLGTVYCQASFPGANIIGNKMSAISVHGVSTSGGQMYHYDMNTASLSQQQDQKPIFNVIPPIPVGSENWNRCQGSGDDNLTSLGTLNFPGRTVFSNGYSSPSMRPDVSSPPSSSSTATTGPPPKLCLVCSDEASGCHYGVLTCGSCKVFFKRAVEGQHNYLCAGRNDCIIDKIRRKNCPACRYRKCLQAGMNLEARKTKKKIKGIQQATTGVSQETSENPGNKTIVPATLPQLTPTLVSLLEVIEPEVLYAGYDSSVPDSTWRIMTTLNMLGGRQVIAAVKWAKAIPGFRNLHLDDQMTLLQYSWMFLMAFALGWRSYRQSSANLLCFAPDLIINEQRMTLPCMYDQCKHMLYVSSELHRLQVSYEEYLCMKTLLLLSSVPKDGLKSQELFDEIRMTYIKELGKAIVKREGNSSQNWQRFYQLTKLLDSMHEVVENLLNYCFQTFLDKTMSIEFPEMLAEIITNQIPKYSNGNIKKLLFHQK

[3] = tested on: A549; assay: Effective concentration for inhibition of interleukin-6 in human A549 lung carcinoma cell line using 67% radiolabeled Dexamethasone; type: functional, cell-based
[4] = species: Mus musculus; assay: Effective concentration required for inhibition of interleukin-6 in mouse thioglycolate-elicited peritoneal exudate cell line using 85% radiolabeled Dexamethasone; type: functional
[5] = species: Mus musculus; assay: Effective concentration required for inhibition of interleukin-6 in mouse thioglycolate-elicited peritoneal exudate cell line using 70% radiolabeled Dexamethasone; type: functional
[6] = tested on: A549; assay: Effective concentration for inhibition of interleukin-6 in human A549 lung carcinoma cell line using 64% radiolabeled Dexamethasone; type: functional, cell-based
[7] = species: Mus musculus; assay: Effective concentration required for inhibition of interleukin-6 in mouse thioglycolate-elicited peritoneal exudate cell line using 64% radiolabeled Dexamethasone; type: functional
[8] = tested on: A549; assay: Effective concentration for inhibition of interleukin-6 in human A549 lung carcinoma cell line using 46% radiolabeled Dexamethasone; type: functional, cell-based
[9] = Half life time in mouse at 2 mg/kg IV administration; type: ADME, organism-based; parameters: dose 2 mg/kg, route intravenous; conditions: in vivo
[10] = molecular target: T1, Glucocorticoid receptor; assay: Binding affinity for human glucocorticoid receptor
[11] = tested on: A549; assay: Effective concentration for inhibition of interleukin-6 in human A549 lung carcinoma cell line using 60% radiolabeled Dexamethasone; type: functional, cell-based
[12] = molecular target: T2, Mineralocorticoid receptor (Rattus norvegicus, UniProt P22199); assay: Binding affinity for rat mineralocorticoid receptor
T2 sequence (P22199 whole entry): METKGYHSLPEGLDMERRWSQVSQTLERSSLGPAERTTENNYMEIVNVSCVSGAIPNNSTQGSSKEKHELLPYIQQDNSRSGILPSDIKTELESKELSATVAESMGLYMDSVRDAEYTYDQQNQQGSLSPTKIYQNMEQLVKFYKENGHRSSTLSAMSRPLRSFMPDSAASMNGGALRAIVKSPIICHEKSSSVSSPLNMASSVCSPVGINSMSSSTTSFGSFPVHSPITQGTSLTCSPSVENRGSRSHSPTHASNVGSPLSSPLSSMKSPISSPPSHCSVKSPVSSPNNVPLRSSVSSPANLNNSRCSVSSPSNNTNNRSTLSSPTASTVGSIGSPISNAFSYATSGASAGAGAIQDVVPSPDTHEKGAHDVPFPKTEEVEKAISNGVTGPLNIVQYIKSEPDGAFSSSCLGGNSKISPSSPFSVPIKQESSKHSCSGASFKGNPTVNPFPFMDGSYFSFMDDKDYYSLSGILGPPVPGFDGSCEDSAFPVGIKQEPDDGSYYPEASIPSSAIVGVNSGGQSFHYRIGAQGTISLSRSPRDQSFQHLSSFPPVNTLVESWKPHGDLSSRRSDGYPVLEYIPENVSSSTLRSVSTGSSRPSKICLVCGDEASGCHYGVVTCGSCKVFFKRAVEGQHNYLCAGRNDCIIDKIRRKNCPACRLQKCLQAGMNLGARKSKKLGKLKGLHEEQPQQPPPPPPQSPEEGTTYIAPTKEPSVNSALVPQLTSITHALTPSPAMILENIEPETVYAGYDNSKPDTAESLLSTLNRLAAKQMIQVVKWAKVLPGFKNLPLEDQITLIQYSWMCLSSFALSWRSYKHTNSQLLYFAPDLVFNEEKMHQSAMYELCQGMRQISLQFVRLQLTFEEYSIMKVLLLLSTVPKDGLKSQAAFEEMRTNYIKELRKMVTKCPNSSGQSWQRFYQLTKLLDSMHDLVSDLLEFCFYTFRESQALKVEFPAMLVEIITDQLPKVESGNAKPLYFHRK

[13] = molecular target: Estrogen receptor beta (Homo sapiens, UniProt Q92731); assay: Binding affinity for human estrogen receptor beta
[14] = molecular target: T3, Estrogen receptor (Homo sapiens, UniProt P03372); assay: Binding affinity for human estrogen receptor alpha
T3 sequence (P03372 whole entry): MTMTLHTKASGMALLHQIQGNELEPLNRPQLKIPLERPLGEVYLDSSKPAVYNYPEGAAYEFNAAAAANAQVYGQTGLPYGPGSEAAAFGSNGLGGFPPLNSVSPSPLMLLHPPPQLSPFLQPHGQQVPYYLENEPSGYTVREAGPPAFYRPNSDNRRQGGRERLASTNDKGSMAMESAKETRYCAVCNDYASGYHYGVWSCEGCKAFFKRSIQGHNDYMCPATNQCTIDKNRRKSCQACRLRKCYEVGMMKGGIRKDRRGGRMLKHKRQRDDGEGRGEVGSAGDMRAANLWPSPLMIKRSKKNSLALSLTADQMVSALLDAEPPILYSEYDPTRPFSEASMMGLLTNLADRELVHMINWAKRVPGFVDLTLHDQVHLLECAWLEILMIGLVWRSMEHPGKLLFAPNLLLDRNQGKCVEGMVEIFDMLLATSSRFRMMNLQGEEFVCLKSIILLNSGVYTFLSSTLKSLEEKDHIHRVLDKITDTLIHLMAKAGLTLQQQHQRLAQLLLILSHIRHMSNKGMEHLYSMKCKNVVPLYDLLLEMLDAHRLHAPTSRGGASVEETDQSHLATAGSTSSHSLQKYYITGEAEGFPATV

[15] = species: Mus musculus; assay: Effective concentration required for inhibition of interleukin-6 in mouse thioglycolate-elicited peritoneal exudate cell line using 69% radiolabeled Dexamethasone; type: functional
[16] = Bioavailability in mouse (dose 10 mg/kg p.o.); type: ADME, organism-based; conditions: in vivo, po
[17] = Clearance data in mouse at 2 mg/kg IV administration; type: ADME, organism-based; parameters: dose 2 mg/kg, route intravenous; conditions: in vivo
[18] = species: Mus musculus; assay: Effective concentration required for interleukin-6 transrepression in peritoneal exudate cells of C57B1/6 mouse using 69% Dexamethasone; type: functional, cell-based
[19] = tested on: Mus musculus; assay: Inhibition of LPS induced TNF-alpha secretion in mouse at an oral dose of 30 mg/kg relative to that produced by Dexamethasone at a dose of 0.3 mg/kg; type: functional
[20] = Volume of distribution in mouse at 2 mg/kg IV administration; type: ADME, organism-based; parameters: dose 2 mg/kg, route intravenous; conditions: in vivo, read-out: Volume of distribution
[21] = tested on: HepG2; assay: Effective concentration required for induction of tyrosine aminotransferase in human HepG2 cells using 74% radiolabeled Dexamethasone; type: functional, cell-based
[22] = tested on: A549; assay: Effective concentration required for inhibition of interleukin-6 in human A549 lung carcinoma cell line using 93% radiolabeled Dexamethasone; type: functional, cell-based
[23] = Effective concentration required for induction of glutamine synthetase in human skeletal muscle cells using 45% radiolabeled Dexamethasone; type: functional
[24] = species: Mus musculus; assay: Effective concentration required for inhibition of interleukin-6 in mouse thioglycolate-elicited peritoneal exudate cell line using 111% radiolabeled Dexamethasone; type: functional
[25] = species: Mus musculus; assay: Effective concentration required for inhibition of interleukin-6 in mouse thioglycolate-elicited peritoneal exudate cell line using 72% radiolabeled Dexamethasone; type: functional
[26] = tested on: A549; assay: Effective concentration for inhibition of interleukin-6 in human A549 lung carcinoma cell line using 58% radiolabeled Dexamethasone; type: functional, cell-based

Estrogen receptor beta, sequence (Q92731 whole entry): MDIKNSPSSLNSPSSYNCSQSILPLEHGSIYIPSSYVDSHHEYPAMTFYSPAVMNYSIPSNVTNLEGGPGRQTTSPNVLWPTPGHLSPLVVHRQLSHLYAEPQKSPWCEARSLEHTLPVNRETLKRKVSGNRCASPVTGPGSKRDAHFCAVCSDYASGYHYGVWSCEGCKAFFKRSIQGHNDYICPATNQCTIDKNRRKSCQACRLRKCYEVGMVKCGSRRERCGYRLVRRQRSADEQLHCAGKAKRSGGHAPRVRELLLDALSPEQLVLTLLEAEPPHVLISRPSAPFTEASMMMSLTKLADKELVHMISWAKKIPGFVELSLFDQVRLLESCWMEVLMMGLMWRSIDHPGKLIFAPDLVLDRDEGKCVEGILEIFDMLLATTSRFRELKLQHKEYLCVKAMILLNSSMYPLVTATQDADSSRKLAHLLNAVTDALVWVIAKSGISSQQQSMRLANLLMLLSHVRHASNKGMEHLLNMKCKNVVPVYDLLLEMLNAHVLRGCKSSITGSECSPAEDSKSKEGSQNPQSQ

C[C@]12Cc3cnn(-c4ccc(F)cc4)c3C=C1CCC21O[C@H](c2ccccc2)[C@@H](c2ccccc2)O1 gave an EC50 [1] of 10 nM, an IC50 [2] of 10 nM and an EC50 [3] of 10 nM. For the same compound, the EC50 [4] was 60 nM.
Compound C[C@]12Cc3cnn(-c4ccc(F)cc4)c3C=C1CC[C@]21OC[C@@H](c2ccccc2)O1 has an IC50 [2] of 8.5 nM and an EC50 [5] of 91 nM.
For C[C@@H]1C[C@H](C)O[C@@]2(CCC3=Cc4c(cnn4-c4ccc(F)cc4)C[C@@]32C)O1, the EC50 [6] was 26 nM, the IC50 [2] was 3.1 nM and the EC50 [7] was 19 nM.
C[C@@H]1CCO[C@@]2(CCC3=Cc4c(cnn4-c4ccc(F)cc4)C[C@@]32C)O1 showed an EC50 [8] of 0.48 nM and an IC50 [2] of 18 nM.
In the case of C[C@H]1C[C@H](C)OC2(CCC3=Cc4c(cnn4-c4ccc(F)cc4)C[C@@]32C)O1 (some centres not stated), the half-life [9] is reported as 3 h, the IC50 [10] is reported as 7.1 nM and the EC50 [11] is reported as 13 nM. The IC50 [12] was greater than 10000 nM, the IC50 [13] was greater than 10000 nM and the IC50 [14] was greater than 10000 nM. The EC50 [15] was 54 nM, the IC50 [2] was 7.1 nM and the bioavailability [16] was 23%. For the same compound, the clearance [17] was 118 mL/min/kg, the EC50 [18] was 54 nM and the Inhibition [19] was 80.8%. The Vd [20] was 27.2 L/kg.
C/C=C/[C@H]1OC2(CCC3=Cc4c(cnn4-c4ccc(F)cc4)C[C@@]32C)O[C@@H]1/C=C/C showed an EC50 [21] of 164 nM, an IC50 [2] of 2.7 nM and an EC50 [22] of 6.5 nM. The EC50 [23] was 17 nM and the EC50 [24] was 7.6 nM.
Compound C[C@@H]1C[C@@H](C)OC2(CCC3=Cc4c(cnn4-c4ccc(F)cc4)C[C@@]32C)O1 (stereo in doubt; form 1) has an EC50 [25] of 45 nM, an EC50 [26] of 7.5 nM and an IC50 [2] of 8.4 nM.

— ChEMBL document CHEMBL1139605, “Novel ketal ligands for the glucocorticoid receptor: in vitro and in vivo activity” (Bioorg Med Chem Lett, 2005)
